Assay results reported in ChEMBL document CHEMBL3997802, “Design, Synthesis, and Evaluation of Isaindigotone Derivatives To Downregulate c-myc Transcription via Disrupting the Interaction of NM23-H2 with G-Quadruplex” (J Med Chem, 2017).
Calls of active or inactive are those of the source. No cut-off for these calls is given here.

Legend:
[1] = Inhibition of 5'-biotin-labeled c-Myc Pu18 G-quadruplex DNA (unknown origin) interaction with His-tagged NM23-H2 assessed as ratio of Kd for NM23-H2-DNA complex in presence of compound to Kd for […]-DNA complex in absence of compound at 20 uM preincubated with NM23-H2 for 1 hr followed by addition of DNA measured after overnight incubation by ELISA
[2] = Stabilization of 5'-FAM/3'-TAMRA labeled c-Myc Pu18 G-quadruplex DNA (unknown origin) assessed as change in melting temperature at 1 uM after overnight incubation by FRET assay
[3] = Inhibition of thiazole orange binding to c-Myc Pu18 G-quadruplex DNA (unknown origin) at 10 uM after 30 secs by fluorescence spectrophotometric method
[4] = Inhibition of thiazole orange binding to c-Myc Pu27 G-quadruplex DNA (unknown origin) at 10 uM after 30 secs by fluorescence spectrophotometric method
SiHa [5] = assay: Cytotoxicity against human SiHa cells assessed as reduction in cell viability up to 2.2 uM after 48 hrs by MTT assay; type: cell-based
Homo sapiens [6] = organism: Homo sapiens; assay: Inhibition of NM23-H2 binding to c-Myc promoter DNA in human SiHa cell nuclear extract after 4 days by ChIP analysis
Homo sapiens [7] = organism: Homo sapiens; assay: Inhibition of NM23-H2 binding to c-Myc G-quadruplex DNA in human SiHa cells assessed as downregulation of c-Myc mRNA level after 4 days by RT-PCR method; type: cell-based
SiHa [8] = assay: Effect on NM23-H2 mRNA level in human SiHa cells up to 2.2 uM after 4 days by RT-PCR method; type: functional, cell-based
Homo sapiens [9] = organism: Homo sapiens; assay: Inhibition of NM23-H2 binding to c-Myc G-quadruplex DNA in human SiHa cells assessed as downregulation of c-Myc protein expression at 0.5 times cytotoxic IC50 after 4 days by Western blot method; type: cell-based
SiHa [10] = assay: Effect on NM23-H2 protein expression in human SiHa cells up to 2.2 uM after 4 days by Western blot method; type: functional, cell-based
[11] = Transrepression of c-Myc Pu43 G-quadruplex DNA (unknown origin) expressed in human SiHa cells after 48 hrs by luciferase reporter gene assay; type: cell-based
[12] = Transrepression of c-Myc Pu43 G-quadruplex DNA (unknown origin) expressed in human SiHa cells at 1.1 uM after 48 hrs by luciferase reporter gene assay relative to control; type: cell-based
[13] = Transrepression of c-Myc Pu43 G-quadruplex DNA (unknown origin) expressed in human SiHa cells at 1.65 uM after 48 hrs by luciferase reporter gene assay relative to control; type: cell-based
[14] = Transrepression of c-Myc Pu43 G-quadruplex DNA (unknown origin) expressed in human SiHa cells at 2.2 uM after 48 hrs by luciferase reporter gene assay relative to control; type: cell-based
[15] = Transrepression of c-Myc MUT Pu43 DNA (unknown origin) expressed in human SiHa cells up to 2.2 uM after 48 hrs by luciferase reporter gene assay relative to control; type: cell-based
Homo sapiens [16] = organism: Homo sapiens; assay: Transrepression of c-Myc G-quadruplex DNA in human SiHa cells at 2.2 uM after 96 hrs by DAPI staining based immunofluoresence microscopic method; type: cell-based
[17] = Induction of G-quadruplex formation in wild type c-Myc Pu43 DNA (unknown origin) in pH 7.4 Tris HCl at 25 uM after overnight incubation in absence of Kcl by CD spectroscopic analysis
SiHa [18] = assay: Growth inhibition of human SiHa cells after 40 hrs by real time cellular analysis; type: functional, cell-based
[19] = Growth inhibition of mouse primary mesangial cells at 0.25 to 1 times cytotoxic IC50 after 100 hrs by real time cellular analysis; type: cell-based; conditions: primary mesangial cell
Homo sapiens [20] = organism: Homo sapiens; assay: Inhibition of NM23-H2 binding to c-Myc G-quadruplex DNA in human SiHa cells assessed as effect on phosphorylated p53 protein expression by Western blot method; type: cell-based
Homo sapiens [21] = organism: Homo sapiens; assay: Inhibition of NM23-H2 binding to c-Myc G-quadruplex DNA in human SiHa cells assessed as effect on p15 protein expression by Western blot method; type: cell-based
Homo sapiens [22] = organism: Homo sapiens; assay: Inhibition of NM23-H2 binding to c-Myc G-quadruplex DNA in human SiHa cells assessed as effect on cyclin D3 protein expression by Western blot method; type: cell-based
Homo sapiens [23] = organism: Homo sapiens; assay: Inhibition of NM23-H2 binding to c-Myc G-quadruplex DNA in human SiHa cells assessed as effect on BRCA1 protein expression by Western blot method; type: cell-based
Homo sapiens [24] = organism: Homo sapiens; assay: Inhibition of NM23-H2 binding to c-Myc G-quadruplex DNA in human SiHa cells assessed as effect on p27Kip1 protein expression by Western blot method; type: cell-based
Homo sapiens [25] = organism: Homo sapiens; assay: Inhibition of NM23-H2 binding to c-Myc G-quadruplex DNA in human SiHa cells assessed as effect on cleaved PARP protein expression by Western blot method; type: cell-based
Homo sapiens [26] = organism: Homo sapiens; assay: Inhibition of NM23-H2 binding to c-Myc G-quadruplex DNA in human SiHa cells assessed as effect on cleaved caspase-3 protein expression by Western blot method; type: cell-based
[27] = Effect on cleaved caspase-3 protein expression in mouse primary mesangial cells up to 2.2 uM by Western blot method; type: ADME, cell-based; conditions: primary mesangial cell
[28] = Effect on BRCA1 protein expression in mouse primary mesangial cells up to 2.2 uM by Western blot method; type: ADME, cell-based; conditions: primary mesangial cell
[29] = Effect on CDK6 protein expression in mouse primary mesangial cells up to 2.2 uM by Western blot method; type: ADME, cell-based; conditions: primary mesangial cell
[30] = Effect on NM23-H2 protein expression in mouse primary mesangial cells up to 2.2 uM by Western blot method; type: ADME, cell-based; conditions: primary mesangial cell
[31] = Effect on c-Myc protein expression in mouse primary mesangial cells up to 2.2 uM by Western blot method; type: ADME, cell-based; conditions: primary mesangial cell
[32] = biological target: T1, Cellular tumor antigen p53 (Mus musculus, UniProt P02340); assay: Effect on p53 phosphorylation in mouse primary mesangial cells up to 2.2 uM by Western blot method; type: ADME
SiHa [33] = assay: Growth inhibition of human SiHa cells transfected with NM23-H2 siRNA up to 4.4 uM after 100 hrs by real time cellular analysis; type: functional, cell-based
SiHa [34] = assay: Inhibition of colony formation in human SiHa cells up to 1.1 uM after 7 days by crystal violet staining based assay; type: functional, cell-based
[35] = Inhibition of His-tagged NM23-H2 binding to 5'-biotin-labeled c-Myc Pu18 G-quadruplex DNA (unknown origin) after 10 mins by filter binding assay
[36] = Inhibition of His-tagged NM23-H2 binding to 5'-biotin-labeled c-Myc Pu18 ssDNA (unknown origin) after 10 mins by filter binding assay
[37] = Inhibition of unwinding activity of His-tagged NM23-H2 to 5'-FAM/3'-TAMRA labeled c-Myc Pu18 G-quadruplex DNA (unknown origin) by FRET assay
SiHa [38] = assay: Cytotoxicity against human SiHa cells assessed as reduction in cell viability up to 8 uM after 48 hrs by MTT assay; type: cell-based
SiHa [39] = assay: Effect on NM23-H2 mRNA level in human SiHa cells up to 8 uM after 4 days by RT-PCR method; type: functional, cell-based
SiHa [40] = assay: Effect on NM23-H2 protein expression in human SiHa cells up to 8 uM after 4 days by Western blot method; type: functional, cell-based
[41] = Transrepression of c-Myc Pu43 G-quadruplex DNA (unknown origin) expressed in human SiHa cells at 4 uM after 48 hrs by luciferase reporter gene assay relative to control; type: cell-based
[42] = Transrepression of c-Myc Pu43 G-quadruplex DNA (unknown origin) expressed in human SiHa cells at 6 uM after 48 hrs by luciferase reporter gene assay relative to control; type: cell-based
[43] = Transrepression of c-Myc Pu43 G-quadruplex DNA (unknown origin) expressed in human SiHa cells at 8 uM after 48 hrs by luciferase reporter gene assay relative to control; type: cell-based
[44] = Transrepression of c-Myc MUT Pu43 DNA (unknown origin) expressed in human SiHa cells up to 8 uM after 48 hrs by luciferase reporter gene assay relative to control; type: cell-based
Homo sapiens [45] = organism: Homo sapiens; assay: Transrepression of c-Myc G-quadruplex DNA in human SiHa cells at 8 uM after 96 hrs by DAPI staining based immunofluoresence microscopic method; type: cell-based
SiHa [46] = assay: Growth inhibition of human SiHa cells after 50 hrs by real time cellular analysis; type: functional, cell-based
[47] = Effect on cleaved caspase-3 protein expression in mouse primary mesangial cells up to 8 uM by Western blot method; type: ADME, cell-based; conditions: primary mesangial cell
[48] = Effect on BRCA1 protein expression in mouse primary mesangial cells up to 8 uM by Western blot method; type: ADME, cell-based; conditions: primary mesangial cell
[49] = Effect on CDK6 protein expression in mouse primary mesangial cells up to 8 uM by Western blot method; type: ADME, cell-based; conditions: primary mesangial cell
[50] = Effect on NM23-H2 protein expression in mouse primary mesangial cells up to 8 uM by Western blot method; type: ADME, cell-based; conditions: primary mesangial cell
[51] = Effect on c-Myc protein expression in mouse primary mesangial cells up to 8 uM by Western blot method; type: ADME, cell-based; conditions: primary mesangial cell
[52] = biological target: T1, Cellular tumor antigen p53; assay: Effect on p53 phosphorylation in mouse primary mesangial cells up to 8 uM by Western blot method; type: ADME
SiHa [53] = assay: Growth inhibition of human SiHa cells transfected with NM23-H2 siRNA up to 16 uM after 100 hrs by real time cellular analysis; type: functional, cell-based
SiHa [54] = assay: Inhibition of colony formation in human SiHa cells up to 4 uM after 7 days by crystal violet staining based assay; type: functional, cell-based

T1 sequence (P02340 whole entry): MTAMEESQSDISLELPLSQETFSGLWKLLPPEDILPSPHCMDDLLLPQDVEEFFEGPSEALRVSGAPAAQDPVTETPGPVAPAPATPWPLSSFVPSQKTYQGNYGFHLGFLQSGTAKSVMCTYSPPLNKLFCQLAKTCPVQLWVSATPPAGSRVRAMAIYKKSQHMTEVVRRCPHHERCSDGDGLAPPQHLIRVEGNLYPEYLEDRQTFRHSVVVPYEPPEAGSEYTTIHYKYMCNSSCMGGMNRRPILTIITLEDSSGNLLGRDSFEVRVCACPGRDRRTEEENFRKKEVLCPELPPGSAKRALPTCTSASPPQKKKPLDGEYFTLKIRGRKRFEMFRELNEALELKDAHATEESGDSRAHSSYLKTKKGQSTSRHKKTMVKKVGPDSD

For `CCN(CC)CCNC(=O)c1ccc(/C=C2\CCn3c2nc2cc(NCCCN4CCCC4)c(F)cc2c3=O)cc1`, the Ratio [1] was 3.4, the ΔTm [2] was 12.9 °C and the inhibition [3] was “Active”. The inhibition [4] was “Active”, the Activity (SiHa [5]) was “Non-Toxic” and the inhibition (Homo sapiens [6]) was “Dose-dependent effect”. The inhibition (Homo sapiens [7]) was “Dose-dependent effect”, the Activity (SiHa [8]) was “inactive” and the inhibition (Homo sapiens [9]) was “Active”. For the same compound, the Activity (SiHa [10]) was “inactive”, the Activity [11] was “Dose-dependent effect” and the Activity [12] was 65.7%. For the same compound, the Activity [13] was 41.4%, the Activity [14] was 38% and the Activity [15] was “inactive”. The Activity (Homo sapiens [16]) was “Active”, the Activity [17] was “Active” and the “growth inhibition (GI)” value (SiHa [18]) was “Dose-dependent effect”. For the same compound, the “growth inhibition (GI)” value [19] was “Non-Toxic”, the inhibition (Homo sapiens [20]) was “Dose-dependent effect” and the inhibition (Homo sapiens [21]) was “Dose-dependent effect”. For the same compound, the inhibition (Homo sapiens [22]) was “Dose-dependent effect”, the inhibition (Homo sapiens [23]) was “Dose-dependent effect” and the inhibition (Homo sapiens [24]) was “Dose-dependent effect”. The inhibition (Homo sapiens [25]) was “Dose-dependent effect”, the inhibition (Homo sapiens [26]) was “Dose-dependent effect” and the Activity [27] was “Non-Toxic”. For the same compound, the Activity [28] was “Non-Toxic”, the Activity [29] was “Non-Toxic” and the Activity [30] was “Non-Toxic”. The Activity [31] was “Non-Toxic”, the Activity [32] was “Non-Toxic” and the “growth inhibition (GI)” value (SiHa [33]) was “inactive”. The inhibition (SiHa [34]) was “Active”.

For `O=C(NCCCN1CCCC1)c1ccc(/C=C2\CCn3c2nc2cc(NCCN4CCCC4)c(F)cc2c3=O)cc1`, the Ratio [1] was 4.3, the inhibition [35] was “Active” and the ΔTm [2] was 12.1 °C. The inhibition [3] was “Active”, the inhibition [4] was “Active” and the inhibition [36] was “Active”. For the same compound, the inhibition [37] was “Active”, the Activity (SiHa [38]) was “Non-Toxic” and the inhibition (Homo sapiens [6]) was “Dose-dependent effect”. The inhibition (Homo sapiens [7]) was “Dose-dependent effect”, the Activity (SiHa [39]) was “inactive” and the inhibition (Homo sapiens [9]) was “Active”. For the same compound, the Activity (SiHa [40]) was “inactive”, the Activity [11] was “Dose-dependent effect” and the Activity [41] was 73.4%. The Activity [42] was 58.6%, the Activity [43] was 42.3% and the Activity [44] was “inactive”. The Activity (Homo sapiens [45]) was “Active”, the Activity [17] was “Active” and the “growth inhibition (GI)” value (SiHa [46]) was “Dose-dependent effect”. For the same compound, the “growth inhibition (GI)” value [19] was “Non-Toxic”, the inhibition (Homo sapiens [20]) was “Dose-dependent effect” and the inhibition (Homo sapiens [21]) was “Dose-dependent effect”. The inhibition (Homo sapiens [22]) was “Dose-dependent effect”, the inhibition (Homo sapiens [23]) was “Dose-dependent effect” and the inhibition (Homo sapiens [24]) was “Dose-dependent effect”. For the same compound, the inhibition (Homo sapiens [25]) was “Dose-dependent effect”, the inhibition (Homo sapiens [26]) was “Dose-dependent effect” and the Activity [47] was “Non-Toxic”. The Activity [48] was “Non-Toxic”, the Activity [49] was “Non-Toxic” and the Activity [50] was “Non-Toxic”. The Activity [51] was “Non-Toxic”, the Activity [52] was “Non-Toxic” and the “growth inhibition (GI)” value (SiHa [53]) was “inactive”. The inhibition (SiHa [54]) was “Active”.
